Literature values in patent publication US20230380414A1, “SYSTEMS, DEVICES AND METHODS FOR DELIVERING AEROSOLIZED FLUOROCARBONS” (BOUNDLESS SCIENCE, LLC, priority 2020, published 2023).
Read-outs that look alike come from different tables or passages of the source.

Columns and labels:
[1] = cited from earlier work
[2] = cited from earlier work; for Den: Table 1; for Specific Gravity: partial list of fluorinated and perfluorinated liquids
[3] = Table 1; cited from earlier work
[4] = cited from earlier work; for Spec. Ht Liq C: liquid
[5] = cited from earlier work; for Enthalpy of Vap. H: Table 1; for enthalpies of vaporization: running text
[6] = in water; cited from earlier work
[7] = Table 1; cited from earlier work; remark: listed apart in the source
[8] = @ 20° C.; cited from earlier work
[9] = partial list of fluorinated and perfluorinated liquids
[10] = Other perfluorinated liquids and their boiling points
[11] = commercial hydrofluoroalkanes, unit not given

In the case of `FC(F)C(F)(F)C(F)(F)C(F)(F)C(F)(F)C(F)(F)C(F)(F)C(F)(F)C(F)(F)F` [1H-Perfluorononane, Nonadecafluorononane], the “Boiling point” value [1, 9] is given as 138 °C.
In the case of `FC(F)C(F)(F)C(F)(F)C(F)(F)C(F)(F)C(F)(F)C(F)(F)C(F)(F)F` [1H-Perfluorooctane, Heptadecafluorooctane], the “Boiling point” value [1, 9] is listed as 117 °C.
In the case of `FC(F)C(F)(F)C(F)(F)C(F)F` [1H.4H-Perfluorobutane, Octafluorobutane], the “Boiling point” value [1, 9] is given as 45 °C.
For “Perfluoro(triethylene glycol dimethyl ether) [Perfluorotetraglyme]”, the “Boiling point” value [1, 9] is listed as 138 °C.
In the case of `OCC(F)(F)C(F)(F)C(F)(F)C(F)(F)F` [1H, 1H-Perfluoro-1-pentanol, 1H, 1H-Nonafluoro-1-pentanol], the “Boiling point” value [1, 9] is given as 110-111 °C.
For `FC(F)(F)C(F)(F)C(F)(F)F` [perfluoropropane], the Boiling point [1, 10] is listed as −36.7 °C, the Boiling point ([1]; Table 2) is listed as −36.7 °C and the Boiling point ([1]; Table 4) is listed as −36.7 °C.
For `FC(F)(F)C(F)(F)C(F)(F)C(F)(F)C(F)(F)C(F)(F)F` [C6F14], the Den [2] is listed as 1.69 g/mL, the Viscosity [3] is listed as 0.979 cPs and the “Spec Ht gas C” value [4] is listed as 0.78 KJ/Kg/C. For the same compound, the “Spec. Ht Liq C” value [4] was 0.71 KJ/Kg/C, the “Enthalpy of Vap. H” value [5] was 93 kJ/kg and the Boiling point ([1]; Table 1) was 69 °C.
For `FC(F)(F)C(F)(C(F)(F)F)C(F)(C(F)(F)F)C(F)(F)F` [Perfluoro-(2,3-Dimethylbutane), 1,1,1,2,3,4,4,4-Octafluoro-2,3-bis(trifluoromethyl)butane], the “Specific Gravity” value [2] is given as 1.7729.
For `COC(F)(F)C(F)(F)C(F)(F)C(F)(F)F` [methyl perfluorobutylether], the Boiling point [1, 10] is given as 60 °C.
For `FC(C(F)(F)F)C(F)(F)F` [HFA227ea ™], the “Boiling point” value [1, 11] is given as −17.
For `COC(F)(F)C(F)(F)C(F)(F)F` [methyl perfluoropropyl ether], the Boiling point [1, 10] is given as 34 °C.
In the case of `FC(F)(F)C(F)(F)C(F)(F)C(F)(F)C(F)(F)C(F)(F)C(F)(F)C(F)(F)C(F)(F)F` [Perfluorononane, Eicosafluorononane], the “Specific Gravity” value [2] is given as 1.799.
In the case of `FC(F)C(F)(F)C(F)(F)C(F)(F)C(F)(F)C(F)(F)C(F)(F)F` [1H-Perfluoroheptane, Pentadecafluoroheptane], the “Boiling point” value [1, 9] is listed as 97 °C.
For `FC(F)(F)C(F)(F)C(F)(F)C(F)(F)C(F)(F)C(F)(F)F` [Perfluorohexane], the Boiling point [1, 10] is given as 56.0 °C, the Boiling point ([1]; Table 2) is given as 56.0 °C and the Boiling point ([1]; Table 4) is given as 56.0 °C.
For `FC(F)(F)C(F)(F)C(F)(F)C(F)(F)C(F)(F)N(C(F)(F)C(F)(F)C(F)(F)C(F)(F)C(F)(F)F)C(F)(F)C(F)(F)C(F)(F)C(F)(F)C(F)(F)F` [perfluorotripentyl amine], the Boiling point [1, 10] is given as 215 °C, the Boiling point ([1]; Table 2) is given as 215 °C and the Boiling point ([1]; Table 4) is given as 215 °C.
In the case of `FC(F)(F)C(F)(F)C(F)(F)C(F)(F)C(F)(F)C(F)(F)C(F)(F)C(F)(F)F` [Perfluorooctane, Octadecafluorooctane], the Den [2] is given as 1.77 g/mL, the “Specific Gravity” value [2] is given as 1.73 and the Viscosity [3] is given as 1.800 cPs. For the same compound, the “Enthalpy of Vap. H” value [5] was 76 kJ/kg, the Boiling point ([1]; Table 1) was 377 °C and the Boiling point ([1]; Table 2) was 103.0 °C. The Boiling point ([1]; Table 4) was 103.0 °C and the “Boiling point” value [1, 9] was 103-104 °C.
For `FCC(F)(F)F` [HFA 134a ™], the “Boiling point” value [1, 11] is given as −26.
In the case of `OCC(F)(F)F` [2,2,2-trifluoroethanol], the Boiling point [1, 10] is given as 78 °C.
In the case of `FC(F)C(F)(F)C(F)(F)C(F)(F)C(F)(F)C(F)F` [1H,6H-Perfluorohexane, Dodecafluorohexane], the “Boiling point” value [1, 9] is given as 93 °C.
In the case of `OCC(F)(F)OC(F)(F)C(F)(F)OC(F)(F)C(F)(F)OC(F)(F)C(F)(F)C(F)(F)C(F)(F)F` [1H,1H-Perfluoro-3,6,9-trioxatridecan-1-ol], the “Boiling point” value [1, 9] is listed as 175-176 °C.
In the case of `FC(F)C(F)(F)C(F)(F)C(F)(F)C(F)(F)C(F)(F)C(F)(F)C(F)F` [1H,8H-Perfluorooctane, Hexadecafluorooctane], the “Boiling point” value [1, 9] is given as 134 °C.
In the case of `OCC(F)(F)C(F)(C(F)(F)F)C(F)(F)C(F)(F)C(F)(F)C(F)(C(F)(F)F)C(F)(F)F` (stereo not drawn) [Perfluoro-3,7-dimethyloctan-1-ol, 3,7-Bis(trifluoromethyl)tridecafluorooctanol], the Solubility [6] is listed as “Insoluble in” and the “Boiling point” value ([1]; 20 mmHg) is listed as 95° C./20.
In the case of `OCC(F)(F)OC(F)(F)C(F)(F)OC(F)(F)C(F)(F)C(F)(F)C(F)(F)F` [1H,1H-Perfluoro-3,6-dioxadecan-1-ol], the “Boiling point” value [1, 9] is listed as 150 °C.
In the case of `FC(F)(F)C(F)(F)C(F)(F)C(F)(F)C(F)(F)F` [perfluoropentane], the Den [2] is listed as 1.59 g/mL, the Viscosity [3] is listed as 0.460 cPs and the “Specific Heat” value ([4]; chilled aerosolized liquid) is listed as 1.05 KJ/Kg*C. For the same compound, the “Spec Ht gas C” value [4] was 1.02 KJ/Kg/C, the “Spec. Ht Liq C” value [4] was 1.05 KJ/Kg/C and the “Enthalpy of Vap. H” value [5] was 94 kJ/kg. For the same compound, the enthalpies of vaporization [5] was 94 kJ/kg, the Boiling point [1, 10] was 28.0 °C and the Boiling point ([1]; Table 1) was 30 °C. The Boiling point ([1]; Table 2) was 28.0 °C, the Boiling point ([1]; Table 4) was 28.0 °C and the Boiling point ([1]; running text) was 30 C. The “O2 Solubility” value [7] was 54 ml/100 ml.
In the case of `FC(F)(F)C(F)(F)C(F)(F)C(F)(F)N(C(F)(F)C(F)(F)C(F)(F)C(F)(F)F)C(F)(F)C(F)(F)C(F)(F)C(F)(F)F` [perfluoro tributyl amine], the Boiling point [1, 10] is listed as 178 °C, the Boiling point ([1]; Table 2) is listed as 178 °C and the Boiling point ([1]; Table 4) is listed as 178 °C.
For `FC(F)C(F)(F)C(F)(F)C(F)(F)C(F)(F)C(F)(F)F` [1H-Perfluorohexane, Tridecafluorohexane], the “Boiling point” value [1, 9] is listed as 70 °C.
In the case of “Perfluoro(triethylene glycol dimethyl ether) [Perfluorotriglyme]”, the “Boiling point” value [1, 9] is given as 106 °C.
In the case of `FC1(F)C(F)(F)C(F)(F)C2(F)C(F)(F)C(F)(F)C(F)(F)C(F)(F)C2(F)C1(F)F` (stereo not drawn) [Perfluorodecalin, Octadecafluorodecalin], the Den [2] is given as 1.92 g/mL, the Viscosity [3] is given as 5.100 cPs and the “Spec. Ht Liq C” value [4] is given as 1.05 KJ/Kg/C. For the same compound, the “Enthalpy of Vap. H” value [5] was 85 kJ/kg, the “O2 Solubility” value [7] was 49 ml/100 ml and the “Vapor Pressure” value [8] was 6 torr @ 20 °C.
For `FC(F)(F)C(F)(F)C(F)(F)C(F)(F)F` [Perfluorobutane], the Den [2] is given as 1.63 g/mL, the Viscosity [3] is given as 0.012 cPs and the “Spec Ht gas C” value [4] is given as 0.69 KJ/Kg/C. For the same compound, the “Spec. Ht Liq C” value [4] was 0.53 KJ/Kg/C, the “Enthalpy of Vap. H” value [5] was 88 kJ/kg and the enthalpies of vaporization [5] was 88 kJ/kg. The Boiling point [1, 10] was −1.7 °C, the Boiling point ([1]; Table 1) was −1.8 °C and the Boiling point ([1]; Table 2) was −1.7 °C. The Boiling point ([1]; Table 4) was −1.7 °C, the Boiling point [1] was −1.7 C and the Boiling point ([1]; listed as perfiiuorobutane) was −1.7 °C.
For `FC1(F)C(F)(F)C(F)(F)C2(F)C(F)(C1(F)F)C(F)(F)C(F)(F)C1(F)C(F)(F)C(F)(F)C(F)(F)C(F)(F)C12F` (stereo not drawn) [Perfluoroperhydrophenanthrene], the Boiling point [1, 10] is listed as 215 °C, the Boiling point ([1]; Table 2) is listed as 215 °C and the Boiling point ([1]; Table 4) is listed as 215 °C.
For `FC(F)(F)C(F)(F)C(F)(F)C(F)(F)C(F)(F)C(F)(F)C(F)(F)F` [perfluoroheptane, Hexadecafluoroheptane], the Den [2] is given as 1.75 g/mL, the “Specific Gravity” value [2] is given as 1.72 and the Viscosity [3] is given as 0.900 cPs. For the same compound, the “Spec Ht gas C” value [4] was 0.82 KJ/Kg/C, the “Spec. Ht Liq C” value [4] was 0.64 KJ/Kg/C and the “Enthalpy of Vap. H” value [5] was 90 kJ/kg. For the same compound, the Boiling point [1, 10] was 56.0 °C, the Boiling point ([1]; Table 1) was 82 °C and the Boiling point ([1]; Table 2) was 56.0 °C. The Boiling point ([1]; Table 4) was 56.0 °C and the “Boiling point” value [1, 9] was 80-82 °C.
For `FC(F)(F)C(F)(F)C(F)(F)C(F)(F)C(F)(F)C(F)(F)C(F)(F)C(F)(F)Br` [Perfluorooctylbromide], the Boiling point [1, 10] is listed as 142 °C, the Boiling point ([1]; Table 2) is listed as 142 °C and the Boiling point ([1]; Table 4) is listed as 142 °C.
For `FC(F)C(F)(F)C(F)(F)C(F)(F)C(F)(F)F` [1H-Perfluoropentane, Undecafluoropentane], the “Boiling point” value [1, 9] is listed as 42 °C.
